Assay results: publication PMC12415608 (Molecular biology of the cell, 2025)

Biological target: PaFimX (Pseudomonas aeruginosa, UniProt Q9HUK6)
Assay: isothermal titration calorimetry
Type: binding

Compound `Nc1nc2c(ncn2[C@@H]2O[C@@H]3CO[P@](=O)(O)O[C@H]4[C@@H](O)[C@H](n5cnc6c(=O)[nH]c(N)nc65)O[C@@H]4CO[P@](=O)(O)O[C@H]3[C@H]2O)c(=O)[nH]1` [cdG] has a Kd of 144 nM.
